Data taken from ChEMBL document CHEMBL1817622, “Synthesis, structure-activity relationship and biological evaluation of novel N-substituted matrinic acid derivatives as host heat-stress cognate 70 (Hsc70) down-regulators” (2011).
Calls of active or inactive are those of the source. The rule behind the calls is not given here.

Key:
[1] = tested on: HepG2 2.2.15; assay: Inhibition of Hsc70 mRNA expression in human HepG2(2.2.15) cells at 100 ug/ml after 24 hrs by RT-PCR analysis; assay type: functional; conditions: HepG2 2.2.15, 24 h
[2] = tested on: Hepatitis B virus; assay: Antiviral activity against Hepatitis B virus infected in human HepG2(2.2.15) cells assessed as inhibition of intracellular HBV DNA replication at 100 ug/mL for 24 hrs by RT-PCR analysis; assay type: functional; parameters: scale not given: the % may be the effect or the level left
[3] = Down regulation of Hsc70 protein level in human HepG2(2.2.15) cells after 24 hrs by RT-PCR analysis; assay type: functional, cell-based
[4] = Down regulation of Hsc70 protein level in human HepG2(2.2.15) cells at 100 ug/mL for 24 hrs by RT-PCR analysis; assay type: functional, cell-based
[5] = tested on: HepG2 2.2.15; assay: Ratio of […] to compound inhibition of mRNA expression in human HepG2(2.2.15) cells infected with Hepatitis B virus; assay type: functional
[6] = Down regulation of Hsc70 protein level in human HepG2(2.2.15) cells at 500 ug/mL for 24 hrs by RT-PCR analysis; assay type: functional, cell-based

Compound	inhibition at 100 µg/mL [1] [%]	also measured
C[N+]1(C)C[C@@H]2CCC[N+]3([O-])CCC[C@@H]([C@H]23)[C@H]1CCCC(=O)O (some centres not stated)	< 10	–
C[N+]1(C)C[C@@H]2CCCN3CCC[C@@H]([C@H]23)[C@H]1CCCC(=O)O	14.1	–
OCCCC[C@@H]1[C@H]2CCCN3CCC[C@@H](CN1Cc1ccccc1)[C@@H]23	25.5	–
[O-][N+]12CCC[C@H]3CN[C@H](CCCCO)[C@@H](CCC1)[C@H]32 (some centres not stated) [OXYMATRINOL]	< 10	–
OCCCC[C@H]1NC[C@@H]2CCCN3CCC[C@H]1[C@H]23 [MATRINOL]	39.3	–
O=C1CCC[C@@H]2[C@H]3CCC[N+]4([O-])CCC[C@@H](CN12)[C@@H]34 (some centres not stated) [OXYMATRINE]	52	Activity [2]: 56%; Activity [3]: Dose-dependent effect
O=C(O)CCC[C@@H]1[C@H]2CCCN3CCC[C@@H](CN1Cc1ccccc1)[C@@H]23	55.9	–
O=C(O)CCC[C@@H]1[C@H]2CCCN3CCC[C@@H](CN1S(=O)(=O)c1ccccc1)[C@@H]23	22.1	–
CC(=O)N1C[C@@H]2CCCN3CCC[C@@H]([C@H]23)[C@H]1CCCC(=O)O	29.8	–
O=C(O)CCC[C@@H]1[C@H]2CCCN3CCC[C@@H](CN1CCO)[C@@H]23	53.7	–
O=C(O)CCC[C@@H]1[C@H]2CCCN3CCC[C@@H](CN1C(=O)CO)[C@@H]23	< 10	–
O=CN1C[C@@H]2CCCN3CCC[C@@H]([C@H]23)[C@H]1CCCC(=O)O	< 10	–
CCN1C[C@@H]2CCCN3CCC[C@@H]([C@H]23)[C@H]1CCCC(=O)O	< 10	–
O=C(O)CCC[C@@H]1[C@H]2CCCN3CCC[C@@H](CN1C(=O)/C=C/c1ccccc1)[C@@H]23	< 10	–
Cc1ccc(S(=O)(=O)N2C[C@@H]3CCCN4CCC[C@@H]([C@H]34)[C@H]2CCCC(=O)O)cc1	39.8	–
COc1cccc(CN2C[C@@H]3CCCN4CCC[C@@H]([C@H]34)[C@H]2CCCC(=O)O)c1	55.6	–
O=C(O)CCC[C@H]1NC[C@@H]2CCC[N+]3([O-])CCC[C@H]1[C@H]23 (some centres not stated) [OXYMATRINIC ACID]	45.5	–
Cc1cccc(OCC(=O)N2C[C@@H]3CCCN4CCC[C@@H]([C@H]34)[C@H]2CCCC(=O)O)c1	< 10	–
COc1ccc(CN2C[C@@H]3CCCN4CCC[C@@H]([C@H]34)[C@H]2CCCCO)cc1	12.2	–
O=C(O)CCC[C@@H]1[C@H]2CCC[N+]3([O-])CCC[C@@H](CN1Cc1ccccc1)[C@@H]23 (some centres not stated)	58.2	–
O=C(O)CCC[C@@H]1[C@H]2CCCN3CCC[C@@H](CN1C(=O)CCl)[C@@H]23	< 10	–
O=C(O)CCC[C@@H]1[C@H]2CCCN3CCC[C@@H](CN1CC1CC1)[C@@H]23	< 10	–
O=C(O)CCC[C@@H]1[C@H]2CCCN3CCC[C@@H](CN1C(=O)c1ccccc1)[C@@H]23	33.6	–
Cc1cccc(OC(C)C(=O)N2C[C@@H]3CCCN4CCC[C@@H]([C@H]34)[C@H]2CCCC(=O)O)c1 (some centres not stated)	< 10	–
O=C(O)CCC[C@H]1NC[C@@H]2CCCN3CCC[C@H]1[C@H]23 [MATRINIC ACID]	46.2	–
CCCN1C[C@@H]2CCCN3CCC[C@@H]([C@H]23)[C@H]1CCCC(=O)O	< 10	–
O=C(O)CCC[C@@H]1[C@H]2CCC[N+]3([O-])CCC[C@@H](CN1CC1CC1)[C@@H]23 (some centres not stated)	< 10	–
O=C1CCC[C@@H]2[C@H]3CCCN4CCC[C@@H](CN12)[C@@H]34 [MATRINE]	52.4	–
COc1ccc(CN2C[C@@H]3CCC[N+]4([O-])CCC[C@@H]([C@H]34)[C@H]2CCCC(=O)O)cc1 (some centres not stated)	69.7	–
COc1ccc(CN2C[C@@H]3CCCN4CCC[C@@H]([C@H]34)[C@H]2CCCC(=O)O)cc1	72.1	Activity [4]: Active; Activity [2]: 77%; fold change (FC) [5]: 1.3; Activity [6]: Active; Activity [3]: Dose-dependent effect
